Source: patent publication US20210052741A1, “GENE THERAPY METHODS AND COMPOSITIONS USING AUXOTROPHIC REGULATABLE CELLS” (AUXOLYTIC LTD, priority 2018, published 2021)
“And” between values parts separate entries of the source, which are not always exact repeats. Equal values may be shown once.

Experiments:
GFP+ UMPS^KO/KO hESCs = test: 5-FOA resistance in hESC co-culture (FACS); assay type: cell-based, human; details: for Viable cell counts, GFP+: co-culture
Text: (§1) To assess resistance to 5-FOA, the UMPS-KO hESCs were genetically engineered to express GFP from an expression cassette integrated into a safe-harbor locus for easier identification in co-culture with UMPS-WT cells.
(§2) These UMPS^KO/KO hESCs were mixed with UMPS^WT/WT cells that were not expressing GFP and followed up by fluorescence-activated cell sorting (FACS) analysis in the presence of different concentrations of 5-FOA. Table 16 provides counts of viable GFP+ and GFP− cells after culture with different 5-FOA concentrations.

GFP- UMPS^WT/WT hESCs = test: 5-FOA resistance in hESC co-culture (FACS); assay type: cell-based, human; details: for Viable cell counts, GFP−: co-culture
Text: as §1, §2

UMPS-7 targeted T cells = test: 5-FOA selection, cell counts after 4 days; assay type: cell-based, human; details: for Average of cells per volume unit: UMPS-7, 4 days in 5-FOA without serum; for Average number of cells per volume unit: UMPS-7, 4 days in 5-FOA
Description: (§3) 5-FOA selects for uracil auxotrophic cells in other organisms (e.g. Boeke et al. 1984, Mol. Gen. Genet. 197(2):345-6), which is hereby incorporated by reference in its entirety). To investigate the potential utility of 5-FOA for the selection of uracil auxotrophs among human cells, the UMPS gene was targeted in human T cells by Cas9-gRNA complex electroporation followed by recovery (as shown in Example 2) followed by an assay of resistance to 5-FOA treatment (FIG. 3A). Cells were grown in 5-FOA and a variety of combinations of serum and uracil sources for 4 days before cell counting was performed.

Mock T cells = test: 5-FOA selection, cell counts after 4 days; assay type: cell-based, human; details: for Average of cells per volume unit / Average number of cells per volume unit: Mock; for Average of cells per volume unit: 4 days in 5-FOA without serum; for Average number of cells per volume unit: 4 days in 5-FOA
Description: as §3

[1] = oral; cited from earlier work
UMPS-WT Nalm6 cells = test: Growth curves of Nalm6 cells with uridine; assay type: cell-based, human; details: for Cell counts, Day 0 / Cell counts, Day 1 / Cell counts, Day 2 / Cell counts, Day 3 / Cell counts, Day 4 / Cell counts, Day 5 / Cell counts, Day 6 / Cell counts, Day 7: UMPS-WT
Description: The same experiment was performed with Nalm6 cells and a similar dependency on the uridine concentration in the culture was observed that was not visible for cells with intact UMPS. Table 25 provides data of growth curves of UMPS^KO/KO Nalm6 cells cultured with different uridine concentrations. No difference was observed between the groups receiving uridine supplement treatment and those not for wild-type cells.

UMPS^KO/KO hESCs = test: Auxotrophy assay with different uridine concentrations; assay type: cell-based, human; details: for Viable cell counts: day 4 after seeding
Description: The UMPS locus was disrupted in the hESCs by electroporation of Cas9 RNP and selection of a clone with InDels in exon 1 as evaluated by amplification and Sanger sequencing of the genomic locus. For gene editing, hESCs were treated with 10 μm ROCK inhibitor (Y-27632) for 24 hours before electroporation. Cells at 70-80% confluence were harvested with ACCUTASE® solution (Life Technologies). 500,000 cells were used per reaction with a SpCas9 concentration of 150 μg/mL (Integrated DNA Technologies) and a Cas9:sgRNA molar ratio of 1:3 and electroporation performed in P3 Primary Cell solution (Lonza) in 16-well NUCLEOCUVETTE™ Strips in the 4D NUCLEOFECTOR system (Lonza). Immediately after electroporation, cells were transferred into one well of a […]® protein mixture (Corning, Inc.)-coated 24 well plate containing 500 μl of mTeSR™ media ([…] Technologies) with 10 μM Y-27632. Media was changed 24 hours after editing and Y-27632 was removed 48 hours after.
An auxotrophy assay was performed over four days with different concentrations of uridine. Microscope photos of wells were taken on day 4 after seeding UMPS^KO/KO hESCs at similar densities and culturing in the presence of different uridine concentrations. […] Quantification of viable cells on day 4 after seeding to evaluate the effect of different uridine concentrations is shown in Table 15.

UMPS KO T cells = test: Auxotrophy assay in sorted T cells; assay type: cell-based, human; details: for Relative viability on Day 4 (%) / Viable cells per ml: UMPS KO
Description: (§4) These T cells were also subjected to an auxotrophy assay and the possibility to select these cells with 5-FOA was tested. […] Higher Uridine concentrations led to higher proliferation rates. Auxotrophic growth of UMPS KO or wild-type (WT) T cells is shown in FIG. 7B and Table 28.

WT T cells = test: Auxotrophy assay in sorted T cells; assay type: cell-based, human; details: for Viable cells per ml: Anti-CD3/-CD28 beads
Description: as §4

Compound: O=C(O)c1[nH]c(=O)[nH]c(=O)c1F [5-FOA, 5-fluoroorotic acid]
- tolerance of UMPS-KO cells to 5-FOA (GFP+ UMPS^KO/KO hESCs; 0.25 μg/ml): tolerated the concentration of 0.25 μg/ml well
- Viable cell counts, GFP+ (GFP+ UMPS^KO/KO hESCs; 5-FOA 0.25 μg/ml): 142820
- Viable cell counts, GFP+ (GFP+ UMPS^KO/KO hESCs; 5-FOA 2.5 μg/ml): 11812.5
- Viable cell counts, GFP+ (GFP+ UMPS^KO/KO hESCs; 5-FOA 25 μg/ml): 8455.98
- proliferation of UMPS-KO cells in 5-FOA (GFP+ UMPS^KO/KO hESCs; concentrations above 0.25 μg/ml): impaired proliferation at higher concentrations
- cells GFP+ (GFP+ UMPS^KO/KO hESCs; groups with 5-FOA (54.8% without 5-FOA)): 95.0%
- sensitivity of UMPS-WT cells to 5-FOA (GFP- UMPS^WT/WT hESCs; all tested concentrations (0.25-25 μg/ml)): sensitive to all tested 5-FOA concentrations
- Viable cell counts, GFP− (GFP- UMPS^WT/WT hESCs; 5-FOA 0.25 μg/ml): 5180
- Viable cell counts, GFP− (GFP- UMPS^WT/WT hESCs; 5-FOA 2.5 μg/ml): 687.5
- Viable cell counts, GFP− (GFP- UMPS^WT/WT hESCs; 5-FOA 25 μg/ml): 334.02
- Average of cells per volume unit (UMPS-7 targeted T cells; No UMP/Uridine): 52156.98 cells per volume unit and 67438.73 cells per volume unit
- Average number of cells per volume unit (UMPS-7 targeted T cells; No Serum, No UMP/Uridine): 56895.21 cells per volume unit
- Average number of cells per volume unit (UMPS-7 targeted T cells; With Serum, No UMP/Uridine): 54282.95 cells per volume unit
- Average of cells per volume unit (Mock T cells; No UMP/Uridine): 12279.07 cells per volume unit and 16467.39 cells per volume unit
- Average number of cells per volume unit (Mock T cells; No Serum, No UMP/Uridine): 13947.04 cells per volume unit
- Average number of cells per volume unit (Mock T cells; With Serum, No UMP/Uridine): 13403.28 cells per volume unit

Compound: O=c1ccn([C@@H]2O[C@H](CO)[C@@H](O)[C@H]2O)c(=O)[nH]1 [Uridine]
- absorption and breakdown [1]: poorly absorbed in the gastrointestinal tract and broken down in the liver
- Cell counts, Day 0 (UMPS-WT Nalm6 cells; 2.5 ug/ml uridine): 20052 and 19661 and 21142
- Cell counts, Day 1 (UMPS-WT Nalm6 cells; 2.5 ug/ml uridine): 35088 and 34130 and 28986
- Cell counts, Day 2 (UMPS-WT Nalm6 cells; 2.5 ug/ml uridine): 67340 and 38314 and 62598
- Cell counts, Day 3 (UMPS-WT Nalm6 cells; 2.5 ug/ml uridine): 156019 and 153257 and 137812
- Cell counts, Day 4 (UMPS-WT Nalm6 cells; 2.5 ug/ml uridine): 244368 and 225750 and 338624
- Cell counts, Day 5 (UMPS-WT Nalm6 cells; 2.5 ug/ml uridine): 923391 and 1119256 and 1148582
- Cell counts, Day 6 (UMPS-WT Nalm6 cells; 2.5 ug/ml uridine): 2017336 and 3269476
- Cell counts, Day 7 (UMPS-WT Nalm6 cells; 2.5 ug/ml uridine): 3869992 and 6117085 and 6538953
- Cell counts, Day 0 (UMPS-WT Nalm6 cells; 25 μg/ml uridine): 27548 and 19505 and 36496
- Cell counts, Day 1 (UMPS-WT Nalm6 cells; 25 μg/ml uridine): 31847 and 39683 and 40000
- Cell counts, Day 2 (UMPS-WT Nalm6 cells; 25 μg/ml uridine): 70922 and 70175 and 68027
- Cell counts, Day 3 (UMPS-WT Nalm6 cells; 25 μg/ml uridine): 214190 and 194185 and 174292
- Cell counts, Day 4 (UMPS-WT Nalm6 cells; 25 μg/ml uridine): 447240 and 311891 and 376249
- Cell counts, Day 5 (UMPS-WT Nalm6 cells; 25 μg/ml uridine): 1413856 and 1173622 and 1216000
- Cell counts, Day 6 (UMPS-WT Nalm6 cells; 25 μg/ml uridine): 3792593 and 2708995
- Cell counts, Day 7 (UMPS-WT Nalm6 cells; 25 μg/ml uridine): 6320988 and 5746352 and 7585185
- Cell counts, Day 0 (UMPS-WT Nalm6 cells; 250 μg/ml uridine): 17980 and 24390
- Cell counts, Day 1 (UMPS-WT Nalm6 cells; 250 μg/ml uridine): 33784 and 40000
- Cell counts, Day 2 (UMPS-WT Nalm6 cells; 250 μg/ml uridine): 59524 and 58737
- Cell counts, Day 3 (UMPS-WT Nalm6 cells; 250 μg/ml uridine): 167715 and 160160
- Cell counts, Day 4 (UMPS-WT Nalm6 cells; 250 μg/ml uridine): 303894 and 213547
- Cell counts, Day 5 (UMPS-WT Nalm6 cells; 250 μg/ml uridine): 1163678 and 1115507
- Cell counts, Day 6 (UMPS-WT Nalm6 cells; 250 μg/ml uridine): 3511660 and 3058542
- Cell counts, Day 7 (UMPS-WT Nalm6 cells; 250 μg/ml uridine): 7293447
- growth with vs without uridine supplement (UMPS-WT Nalm6 cells; wild-type cells): No difference
- proliferation (microscope photos, day 4) (UMPS^KO/KO hESCs; 2.5-250 μg/ml uridine): proliferated
- Viable cell counts (UMPS^KO/KO hESCs; uridine 2.5 μg/ml): 31040 and 38065 and 45189
- Viable cell counts (UMPS^KO/KO hESCs; uridine 25 μg/ml): 31810 and 39635 and 36283
- Viable cell counts (UMPS^KO/KO hESCs; uridine 250 μg/ml): 19147 and 31050 and 33955
- proliferation (UMPS KO T cells; Anti-CD3/-CD28 beads, different Uridine concentrations): proliferated only in the presence of Uridine
- Relative viability on Day 4 (%) (UMPS KO T cells; 2.5 μg/ml Uridine): 78.78 and 79.28 and 79.74
- Viable cells per ml (UMPS KO T cells; 2.5 μg/ml uridine, Anti-CD3/-CD28 beads): 226596 cells per ml and 217594 cells per ml and 224448 cells per ml
- Relative viability on Day 4 (%) (UMPS KO T cells; 25 μg/ml Uridine): 82.16 and 81.57 and 83.09
- Viable cells per ml (UMPS KO T cells; 25 μg/ml uridine, Anti-CD3/-CD28 beads): 282368 cells per ml and 268684 cells per ml and 304864 cells per ml
- Relative viability on Day 4 (%) (UMPS KO T cells; 250 μg/ml Uridine): 85.66 and 85.29 and 84.38
- Viable cells per ml (UMPS KO T cells; 250 μg/ml uridine, Anti-CD3/-CD28 beads): 319120 cells per ml and 345862 cells per ml and 348022 cells per ml
- Relative viability of the cell population on Day 4 (WT T cells; 2.5 μg/ml Uridine): 84.64 and 82.19 and 80.45
- Viable cells per ml (WT T cells; 2.5 μg/ml uridine): 486192 cells per ml and 362626 cells per ml and 364194 cells per ml
- Relative viability of the cell population on Day 4 (WT T cells; 25 μg/ml Uridine): 83.91 and 83.40 and 79.66
- Viable cells per ml (WT T cells; 25 μg/ml uridine): 384503 cells per ml and 410116 cells per ml and 338547 cells per ml
- Relative viability of the cell population on Day 4 (WT T cells; 250 μg/ml Uridine): 86.05 and 86.97 and 87.62
- Viable cells per ml (WT T cells; 250 μg/ml uridine): 609575 cells per ml and 412493 cells per ml and 468354 cells per ml
- survival in 5-FOA compared to control (UMPS-7 targeted T cells; UMPS targeted cells): improved the survival
- Average of cells per volume unit (UMPS-7 targeted T cells; with substrate): 77755.72 cells per volume unit
- Average of cells per volume unit (Mock T cells; with substrate): 53052.43 cells per volume unit
- survival in 5-FOA compared to control (Mock T cells; mock treated cells): improved the survival
